Test results: US9932340B2, “Substituted indoles” (AbbVie Inc., priority 2014, dated 2018)

Target: SUV420H1 enzyme (Homo sapiens, UniProt Q4FZB7)
Assay: TR-FRET SAH SUV420H1 enzyme inhibition assay
Assay type: biochemical
Settings: Histone Peptide H4(8-30)me1 and SAM, overnight at room temp, TR-FRET detection of SAH, read-out: TR-FRET SAH_SUV420H1 IC50
Outline: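 SUV420H1 (90 nM) preincubated 30 min with compound (3-fold dilutions, 50 to 0.00075 μM), then H4(8-30)me1 peptide 5 nM and SAM 4 nM added, overnight at room temp. SAH product detected by TR-FRET with Tb anti-SAH antibody and Oregon Green-SAH in RIPA buffer, 4 h; IC50 from Hill fit, asymptotes fixed 0-100%.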

Sequence of SUV420H1 enzyme (Q4FZB7 whole entry): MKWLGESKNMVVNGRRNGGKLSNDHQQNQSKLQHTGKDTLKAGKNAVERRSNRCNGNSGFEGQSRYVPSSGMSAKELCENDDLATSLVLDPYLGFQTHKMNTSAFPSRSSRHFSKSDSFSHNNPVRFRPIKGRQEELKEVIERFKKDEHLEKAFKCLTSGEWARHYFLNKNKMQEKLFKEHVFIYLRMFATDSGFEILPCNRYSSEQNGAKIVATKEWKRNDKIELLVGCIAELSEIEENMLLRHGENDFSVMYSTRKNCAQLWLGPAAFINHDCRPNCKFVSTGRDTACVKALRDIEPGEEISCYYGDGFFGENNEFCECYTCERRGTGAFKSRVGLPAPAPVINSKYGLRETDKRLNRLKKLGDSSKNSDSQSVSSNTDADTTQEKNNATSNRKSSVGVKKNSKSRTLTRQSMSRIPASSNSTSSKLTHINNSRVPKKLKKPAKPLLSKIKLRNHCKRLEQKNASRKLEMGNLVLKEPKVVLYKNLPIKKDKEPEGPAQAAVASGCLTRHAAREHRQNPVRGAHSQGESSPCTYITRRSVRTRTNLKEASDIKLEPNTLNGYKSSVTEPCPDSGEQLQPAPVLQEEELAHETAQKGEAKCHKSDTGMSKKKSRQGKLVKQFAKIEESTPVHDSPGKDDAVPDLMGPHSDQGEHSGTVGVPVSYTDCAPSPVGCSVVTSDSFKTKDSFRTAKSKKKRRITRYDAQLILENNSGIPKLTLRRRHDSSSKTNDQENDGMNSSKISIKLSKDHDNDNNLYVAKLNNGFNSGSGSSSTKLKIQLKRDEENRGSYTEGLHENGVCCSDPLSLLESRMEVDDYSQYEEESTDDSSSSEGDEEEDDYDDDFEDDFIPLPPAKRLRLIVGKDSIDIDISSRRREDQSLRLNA

IC50	SMILES
6240 nM	Nc1ncnc2c1ncn2Cc1cc(Cl)cc2cc(CNC(=O)c3ccc(Cl)cc3)[nH]c12 [Example 221, N-({7-[(6-amino-9H-purin-9-yl)methyl]-5-chloro-1H-indol-2-yl}methyl)-4-chlorobenzamide]
3540 nM	Nc1ncnc2c1ncn2Cc1cc(Cl)cc2cc(CNC(=O)c3cccc(Cl)c3)[nH]c12 [Example 222, N-({7-[(6-amino-9H-purin-9-yl)methyl]-5-chloro-1H-indol-2-yl}methyl)-3-chlorobenzamide]
8250 nM	Nc1ncnc2c1ncn2Cc1cc(Cl)cc2cc(CNC(=O)c3ccc(F)cc3)[nH]c12 [Example 223, N-({7-[(6-amino-9H-purin-9-yl)methyl]-5-chloro-1H-indol-2-yl}methyl)-4-fluorobenzamide]
2770 nM	Nc1ncnc2c1ncn2Cc1cc(Cl)cc2cc(CNC(=O)c3cccc(F)c3)[nH]c12 [Example 224, N-({7-[(6-amino-9H-purin-9-yl)methyl]-5-chloro-1H-indol-2-yl}methyl)-3-fluorobenzamide]
> 50000 nM	Nc1ncnc2c1ncn2Cc1cc(Cl)cc2cc(CNC(=O)c3ccccc3F)[nH]c12 [Example 225, N-({7-[(6-amino-9H-purin-9-yl)methyl]-5-chloro-1H-indol-2-yl}methyl)-2-fluorobenzamide]
275 nM	Nc1ncnc2c1ncn2Cc1cc(Cl)cc2cc(CNC(=O)c3c(F)cccc3Br)[nH]c12 [Example 226, N-({7-[(6-amino-9H-purin-9-yl)methyl]-5-chloro-1H-indol-2-yl}methyl)-2-bromo-6-fluorobenzamide]
790 nM	Nc1ncnc2c1ncn2Cc1cc(Cl)cc2cc(CNC(=O)c3c(F)cccc3Cl)[nH]c12 [Example 227, N-({7-[(6-amino-9H-purin-9-yl)methyl]-5-chloro-1H-indol-2-yl}methyl)-2-chloro-6-fluorobenzamide]
2420 nM	Nc1ncnc2c1ncn2Cc1cc(Cl)cc2cc(CNC(=O)c3c(F)cccc3F)[nH]c12 [Example 228, N-({7-[(6-amino-9H-purin-9-yl)methyl]-5-chloro-1H-indol-2-yl}methyl)-2,6-difluorobenzamide]
> 50000 nM	Nc1ncnc2c1ncn2Cc1cc(Cl)cc2cc(CNC(=O)c3c(O)cccc3F)[nH]c12 [Example 229, N-({7-[(6-amino-9H-purin-9-yl)methyl]-5-chloro-1H-indol-2-yl}methyl)-2-fluoro-6-hydroxybenzamide]
16700 nM	Nc1ncnc2c1ncn2Cc1cc(Cl)cc2cc(CNC(=O)Cc3ccccn3)[nH]c12 [Example 230, N-({7-[(6-amino-9H-purin-9-yl)methyl]-5-chloro-1H-indol-2-yl}methyl)-2-(pyridin-2-yl)acetamide]
2480 nM	Nc1ncnc2c1ncn2Cc1cc(Cl)cc2cc(CNC(=O)Cc3cccnc3)[nH]c12 [Example 231, N-({7-[(6-amino-9H-purin-9-yl)methyl]-5-chloro-1H-indol-2-yl}methyl)-2-(pyridin-3-yl)acetamide]
1980 nM	Nc1ncnc2c1ncn2Cc1cc(Cl)cc2cc(CNC(=O)Cc3ccncc3)[nH]c12 [Example 232, N-({7-[(6-amino-9H-purin-9-yl)methyl]-5-chloro-1H-indol-2-yl}methyl)-2-(pyridin-4-yl)acetamide]
236 nM	Cc1ncccc1C(=O)NCc1cc2cc(Cl)cc(Cn3cnc4c(N)ncnc43)c2[nH]1 [Example 233, N-({7-[(6-amino-9H-purin-9-yl)methyl]-5-chloro-1H-indol-2-yl}methyl)-2-methylpyridine-3-carboxamide]
60.6 nM	Cc1cc(C(=O)NCc2cc3cc(Cl)cc(Cn4cnc5c(N)ncnc54)c3[nH]2)c(C)nn1 [Example 234, N-({7-[(6-amino-9H-purin-9-yl)methyl]-5-chloro-1H-indol-2-yl}methyl)-3,6-dimethylpyridazine-4-carboxamide]
49.2 nM	Cc1cc(C(=O)NCc2cc3cc(C4=CCNCC4)cc(Cn4cnc5c(N)ncnc54)c3[nH]2)c(C)nn1 [Example 235, N-({7-[(6-amino-9H-purin-9-yl)methyl]-5-(1,2,3,6-tetrahydropyridin-4-yl)-1H-indol-2-yl}methyl)-3,6-dimethylpyridazine-4-carboxamide]
33.8 nM	Cc1cc(C(=O)NCc2cc3cc(C4=CCC(F)(F)CC4)cc(Cn4cnc5c(N)ncnc54)c3[nH]2)c(C)nn1 [Example 236, N-({7-[(6-amino-9H-purin-9-yl)methyl]-5-(4,4-difluorocyclohex-1-en-1-yl)-1H-indol-2-yl}methyl)-3,6-dimethylpyridazine-4-carboxamide]
28.8 nM	CC(=O)N1CC=C(c2cc(Cn3cnc4c(N)ncnc43)c3[nH]c(CNC(=O)c4cc(C)nnc4C)cc3c2)CC1 [Example 237, N-({5-(1-acetyl-1,2,3,6-tetrahydropyridin-4-yl)-7-[(6-amino-9H-purin-9-yl)methyl]-1H-indol-2-yl}methyl)-3,6-dimethylpyridazine-4-carboxamide]
45.7 nM	CC(=O)N1CCC=C(c2cc(Cn3cnc4c(N)ncnc43)c3[nH]c(CNC(=O)c4cc(C)nnc4C)cc3c2)C1 [Example 238]
54.7 nM	Cc1cc(C(=O)NCc2cc3c(Cl)ccc(Cn4cnc5c(N)ncnc54)c3[nH]2)c(C)nn1 [Example 239, N-({7-[(6-amino-9H-purin-9-yl)methyl]-4-chloro-1H-indol-2-yl}methyl)-3,6-dimethylpyridazine-4-carboxamide]
164 nM	N#Cc1ccc(C(=O)NCc2cc3cc(Cl)cc(Cn4cnc5c(N)ncnc54)c3[nH]2)cn1 [Example 240, N-({7-[(6-amino-9H-purin-9-yl)methyl]-5-choro-1H-indol-2-yl}methyl)-6-cyanopyridine-3-carboxamide]

Further lines, the compound ahead of its results:

SMILES	IC50
Cc1cnc(C(=O)NCc2cc3cc(Cl)cc(Cn4cnc5c(N)ncnc54)c3[nH]2)cn1 [Example 205, N-({7-[(6-amino-9H-purin-9-yl)methyl]-5-chloro-1H-indol-2-yl}methyl)-5-methylpyrazine-2-carboxamide]	3430 nM
Nc1ncnc2c1ncn2Cc1cc(Cl)cc2cc(C(N)Cc3ccccc3)[nH]c12 (stereo not drawn) [Example 206, 9-{[2-(1-amino-2-phenylethyl)-5-chloro-1H-indol-7-yl]methyl}-9H-purin-6-amine]	1050 nM
Nc1ncnc2c1ncn2Cc1cc(Cl)cc2cc(CNCc3ccccc3)[nH]c12 [Example 207, 9-({2-[(benzylamino)methyl]-5-chloro-1H-indol-7-yl}methyl)-9H-purin-6-amine]	943 nM
Nc1ncnc2c1ncn2Cc1cc(Cl)cc2cc(CNCc3ccccc3Br)[nH]c12 [Example 208, 9-[(2-{[(2-bromobenzyl)amino]methyl}-5-chloro-1H-indol-7-yl)methyl]-9H-purin-6-amine]	1890 nM
Nc1ncnc2c1ncn2Cc1cc(Cl)cc2cc(CNCc3cccc(Cl)c3)[nH]c12 [Example 209, 9-[(5-chloro-2-{[(3-chlorobenzyl)amino]methyl}-1H-indol-7-yl)methyl]-9H-purin-6-amine]	1920 nM
Nc1ncnc2c1ncn2Cc1cc(Cl)cc2cc(CNCc3ccccc3Cl)[nH]c12 [Example 210, 9-[(5-chloro-2-{[(2-chlorobenzyl)amino]methyl}-1H-indol-7-yl)methyl]-9H-purin-6-amine]	3340 nM
Nc1ncnc2c1ncn2Cc1cc(Cl)cc2cc(CNCc3c(Cl)cccc3Cl)[nH]c12 [Example 211, 9-[(5-chloro-2-{[(2,6-dichlorobenzyl)amino]methyl}-1H-indol-7-yl)methyl]-9H-purin-6-amine]	9330 nM
Nc1ncnc2c1ncn2Cc1cc(Cl)cc2cc(CNCc3cc(Cl)cc(Cl)c3)[nH]c12 [Example 212, 9-[(5-chloro-2-{[(3,5-dichlorobenzyl)amino]methyl}-1H-indol-7-yl)methyl]-9H-purin-6-amine]	3640 nM
Nc1ncnc2c1ncn2Cc1cc(Cl)cc2cc(CNCc3ccc(Cl)c(Cl)c3)[nH]c12 [Example 213, 9-[(5-chloro-2-{[(3,4-dichlorobenzyl)amino]methyl}-1H-indol-7-yl)methyl]-9H-purin-6-amine]	2760 nM
Nc1ncnc2c1ncn2Cc1cc(Cl)cc2cc(CNCc3ccccc3F)[nH]c12 [Example 214, 9-[(5-chloro-2-{[(2-fluorobenzyl)amino]methyl}-1H-indol-7-yl)methyl]-9H-purin-6-amine]	2840 nM
Nc1ncnc2c1ncn2Cc1cc(Cl)cc2cc(CNCc3c(F)cccc3Cl)[nH]c12 [Example 215, 9-[(5-chloro-2-{[(2-chloro-6-fluorobenzyl)amino]methyl}-1H-indol-7-yl)methyl]-9H-purin-6-amine]	3910 nM
Nc1ncnc2c1ncn2Cc1cc(Cl)cc2cc(CNCc3cc(F)cc(Cl)c3)[nH]c12 [Example 216, 9-[(5-chloro-2-{[(3-chloro-5-fluorobenzyl)amino]methyl}-1H-indol-7-yl)methyl]-9H-purin-6-amine]	2470 nM
Nc1ncnc2c1ncn2Cc1cc(Cl)cc2cc(CNCc3cc(F)ccc3Cl)[nH]c12 [Example 217, 9-[(5-chloro-2-{[(2-chloro-5-fluorobenzyl)amino]methyl}-1H-indol-7-yl)methyl]-9H-purin-6-amine]	2430 nM
Nc1ncnc2c1ncn2Cc1cc(Cl)cc2cc(CNCc3cccc(Cl)c3F)[nH]c12 [Example 218, 9-[(5-chloro-2-{[(3-chloro-2-fluorobenzyl)amino]methyl}-1H-indol-7-yl)methyl]-9H-purin-6-amine]	2330 nM
Nc1ncnc2c1ncn2Cc1cc(Cl)cc2cc(CNCc3c(F)cccc3F)[nH]c12 [Example 219, 9-[(5-chloro-2-{[(2,6-difluorobenzyl)amino]methyl}-1H-indol-7-yl)methyl]-9H-purin-6-amine]	3130 nM
Nc1ncnc2c1ncn2Cc1cc(Cl)cc2cc(CNC(=O)c3ccccc3)[nH]c12 [Example 220, N-({7-[(6-amino-9H-purin-9-yl)methyl]-5-chloro-1H-indol-2-yl}methyl)benzamide]	4050 nM
